Data as given in PubChem BioAssay (NCI).
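Cells were grown in 96-well plates and exposed to each compound for 48 hours at five concentrations; endpoints were interpolated linearly between bracketing concentrations, or set to the highest concentration if not reached. GI50 is the concentration that inhibits growth by half. TGI: concentration producing complete growth inhibition.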

What was measured:
Assay in all cases: NCI tumour cell line growth inhibition, 48 h
786-0 renal = test system: 786-0 renal
A498 renal = test system: A498 renal
A549 NSCLC = test system: A549 NSCLC
ACHN renal = test system: ACHN renal
BT-549 breast = test system: BT-549 breast
CCRF-CEM leukemia = test system: CCRF-CEM leukemia
COLO 205 colon = test system: COLO 205 colon
DU-145 prostate = test system: DU-145 prostate
EKVX NSCLC = test system: EKVX NSCLC
HCC-2998 colon = test system: HCC-2998 colon
HCT-116 colon = test system: HCT-116 colon
HCT-15 colon = test system: HCT-15 colon
HL-60(TB) leukemia = test system: HL-60(TB) leukemia
HOP-62 NSCLC = test system: HOP-62 NSCLC
HOP-92 NSCLC = test system: HOP-92 NSCLC
HS 578T breast = test system: HS 578T breast
HT29 colon = test system: HT29 colon
IGROV1 ovarian = test system: IGROV1 ovarian
K-562 leukemia = test system: K-562 leukemia
KM12 colon = test system: KM12 colon
LOX IMVI melanoma = test system: LOX IMVI melanoma
M14 melanoma = test system: M14 melanoma
MALME-3M melanoma = test system: MALME-3M melanoma
MCF7 breast = test system: MCF7 breast
MDA-MB-231 breast = test system: MDA-MB-231 breast
MDA-MB-435 = test system: MDA-MB-435
MOLT-4 leukemia = test system: MOLT-4 leukemia
NCI-H226 lung = test system: NCI-H226 lung
NCI-H23 lung = test system: NCI-H23 lung
NCI-H460 lung = test system: NCI-H460 lung
NCI-H522 lung = test system: NCI-H522 lung
NCI/ADR-RES ovarian = test system: NCI/ADR-RES ovarian
OVCAR-3 ovarian = test system: OVCAR-3 ovarian
OVCAR-4 ovarian = test system: OVCAR-4 ovarian
OVCAR-5 ovarian = test system: OVCAR-5 ovarian
OVCAR-8 ovarian = test system: OVCAR-8 ovarian
PC-3 prostate = test system: PC-3 prostate
RPMI-8226 leukemia = test system: RPMI-8226 leukemia
RXF 393 renal = test system: RXF 393 renal
SF-268 CNS = test system: SF-268 CNS
SF-295 CNS = test system: SF-295 CNS
SF-539 CNS = test system: SF-539 CNS
SK-MEL-2 melanoma = test system: SK-MEL-2 melanoma
SK-MEL-28 melanoma = test system: SK-MEL-28 melanoma
SK-MEL-5 melanoma = test system: SK-MEL-5 melanoma
SK-OV-3 ovarian = test system: SK-OV-3 ovarian
SN12C renal = test system: SN12C renal
SNB-19 CNS = test system: SNB-19 CNS
SNB-75 CNS = test system: SNB-75 CNS
SR leukemia = test system: SR leukemia
SW-620 colon = test system: SW-620 colon
T-47D breast = test system: T-47D breast
TK-10 renal = test system: TK-10 renal
U251 CNS = test system: U251 CNS
UACC-257 melanoma = test system: UACC-257 melanoma
UACC-62 melanoma = test system: UACC-62 melanoma
UO-31 renal = test system: UO-31 renal

COc1ccc(-c2cc(C(=O)N3N=C(c4ccc(N)cc4)CC3c3ccc(Cl)cc3)c3ccccc3n2)cc1 (centres undefined)
GI50 (786-0 renal): 1.84 µM
TGI (786-0 renal): > 100 µM
GI50 (A498 renal): 0.375 µM
TGI (A498 renal): 0.914 µM
GI50 (A549 NSCLC): 2.33 µM
TGI (A549 NSCLC): > 100 µM
GI50 (ACHN renal): 1.47 µM
TGI (ACHN renal): > 100 µM
GI50 (BT-549 breast): 2.04 µM
TGI (BT-549 breast): 73 µM
GI50 (CCRF-CEM leukemia): 5.84 µM
TGI (CCRF-CEM leukemia): > 100 µM
GI50 (COLO 205 colon): 1.99 µM
TGI (COLO 205 colon): 6.58 µM
GI50 (DU-145 prostate): 3.16 µM
TGI (DU-145 prostate): > 100 µM
GI50 (EKVX NSCLC): 3.78 µM
TGI (EKVX NSCLC): > 100 µM
GI50 (HCC-2998 colon): 3.4 µM
TGI (HCC-2998 colon): > 100 µM
GI50 (HCT-116 colon): 1.41 µM
TGI (HCT-116 colon): > 100 µM
GI50 (HCT-15 colon): 1.03 µM
TGI (HCT-15 colon): > 100 µM
GI50 (HL-60(TB) leukemia): 2.54 µM
TGI (HL-60(TB) leukemia): > 100 µM
GI50 (HOP-62 NSCLC): 3.21 µM
TGI (HOP-62 NSCLC): > 100 µM
GI50 (HOP-92 NSCLC): 1.92 µM
TGI (HOP-92 NSCLC): > 100 µM
GI50 (HS 578T breast): 1.05 µM
TGI (HS 578T breast): > 100 µM
GI50 (HT29 colon): 1.13 µM
TGI (HT29 colon): > 100 µM
GI50 (IGROV1 ovarian): 4.98 µM
TGI (IGROV1 ovarian): > 100 µM
GI50 (K-562 leukemia): 1.05 µM
TGI (K-562 leukemia): > 100 µM
GI50 (KM12 colon): 1.15 µM
TGI (KM12 colon): > 100 µM
GI50 (LOX IMVI melanoma): 1.56 µM
TGI (LOX IMVI melanoma): > 100 µM
GI50 (M14 melanoma): 1.16 µM
TGI (M14 melanoma): > 100 µM
GI50 (MALME-3M melanoma): > 100 µM
TGI (MALME-3M melanoma): > 100 µM
GI50 (MCF7 breast): 0.442 µM
TGI (MCF7 breast): > 100 µM
GI50 (MDA-MB-231 breast): 3.28 µM
TGI (MDA-MB-231 breast): > 100 µM
GI50 (MDA-MB-435): 0.305 µM
TGI (MDA-MB-435): 2.22 µM
GI50 (MOLT-4 leukemia): 3.3 µM
TGI (MOLT-4 leukemia): > 100 µM
GI50 (NCI-H226 lung): 7.54 µM
TGI (NCI-H226 lung): > 100 µM
GI50 (NCI-H23 lung): 3.14 µM
TGI (NCI-H23 lung): > 100 µM
GI50 (NCI-H460 lung): 1.89 µM
TGI (NCI-H460 lung): > 100 µM
GI50 (NCI-H522 lung): 0.307 µM
TGI (NCI-H522 lung): 1.8 µM
GI50 (NCI/ADR-RES ovarian): 0.519 µM
TGI (NCI/ADR-RES ovarian): > 100 µM
GI50 (OVCAR-3 ovarian): 0.462 µM
TGI (OVCAR-3 ovarian): 8.55 µM
GI50 (OVCAR-4 ovarian): 1.82 µM
TGI (OVCAR-4 ovarian): > 100 µM
GI50 (OVCAR-5 ovarian): 5.51 µM
TGI (OVCAR-5 ovarian): > 100 µM
GI50 (OVCAR-8 ovarian): 4.16 µM
TGI (OVCAR-8 ovarian): > 100 µM
GI50 (PC-3 prostate): 2.03 µM
TGI (PC-3 prostate): > 100 µM
GI50 (RPMI-8226 leukemia): 3.86 µM
TGI (RPMI-8226 leukemia): > 100 µM
GI50 (RXF 393 renal): 0.698 µM
TGI (RXF 393 renal): 8.22 µM
GI50 (SF-268 CNS): 2.19 µM
TGI (SF-268 CNS): > 100 µM
GI50 (SF-295 CNS): 0.54 µM
TGI (SF-295 CNS): > 100 µM
GI50 (SF-539 CNS): 1.41 µM
TGI (SF-539 CNS): > 100 µM
GI50 (SK-MEL-2 melanoma): 2.03 µM
TGI (SK-MEL-2 melanoma): > 100 µM
GI50 (SK-MEL-28 melanoma): 3.78 µM
TGI (SK-MEL-28 melanoma): > 100 µM
GI50 (SK-MEL-5 melanoma): 0.701 µM
TGI (SK-MEL-5 melanoma): 9.25 µM
GI50 (SK-OV-3 ovarian): 3.32 µM
TGI (SK-OV-3 ovarian): > 100 µM
GI50 (SN12C renal): 4.27 µM
TGI (SN12C renal): > 100 µM
GI50 (SNB-19 CNS): 5.54 µM
TGI (SNB-19 CNS): > 100 µM
GI50 (SNB-75 CNS): 0.371 µM
TGI (SNB-75 CNS): 8.66 µM
GI50 (SR leukemia): 0.595 µM
TGI (SR leukemia): > 100 µM
GI50 (SW-620 colon): 1.24 µM
TGI (SW-620 colon): > 100 µM
GI50 (T-47D breast): 2.71 µM
TGI (T-47D breast): > 100 µM
GI50 (TK-10 renal): 52.3 µM
TGI (TK-10 renal): > 100 µM
GI50 (U251 CNS): 2.18 µM
TGI (U251 CNS): > 100 µM
GI50 (UACC-257 melanoma): > 100 µM
TGI (UACC-257 melanoma): > 100 µM
GI50 (UACC-62 melanoma): 0.556 µM
TGI (UACC-62 melanoma): > 100 µM
GI50 (UO-31 renal): 1.55 µM
TGI (UO-31 renal): > 100 µM
